Drawing on patent US20260158009A1 (GENZYME CORPORATION, priority 2023, published 2026), this text covers IC50 for ten compounds.

The subject of one assay is U937 cells. Kind of assay: Cellular assay in U937 cells: activity of RIPK1 inhibitors on TNFα/zVAD.fmk-induced cell death (necroptosis), CellTiter 96 AQueous (MTS) readout. Format: cell-based. The settings on record: Homo sapiens, U-937. The gist of the method: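 Necroptosis was measured by viable-cell MTS reduction (4 h, absorbance 490 nm) after overnight (18–24 h) 37° C culture. Cell suspensions of U937 cells carried TNFα (100 ng/ml) plus zVAD.fmk (50 μM) before compound was added. A 10-point curve (10 μM–0.26 nM or 1 μM–0.07 nM) was run in duplicate, normalised to the control lacking TNFα/zVAD.fmk.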

The target in assay [1] is T1, hRIPK1 (aa 1-375) fusion protein (Homo sapiens, UniProt Q13546).
T1 construct: hRIPK1 (aa 1-375) fusion protein
T1 sequence (Q13546 1-375): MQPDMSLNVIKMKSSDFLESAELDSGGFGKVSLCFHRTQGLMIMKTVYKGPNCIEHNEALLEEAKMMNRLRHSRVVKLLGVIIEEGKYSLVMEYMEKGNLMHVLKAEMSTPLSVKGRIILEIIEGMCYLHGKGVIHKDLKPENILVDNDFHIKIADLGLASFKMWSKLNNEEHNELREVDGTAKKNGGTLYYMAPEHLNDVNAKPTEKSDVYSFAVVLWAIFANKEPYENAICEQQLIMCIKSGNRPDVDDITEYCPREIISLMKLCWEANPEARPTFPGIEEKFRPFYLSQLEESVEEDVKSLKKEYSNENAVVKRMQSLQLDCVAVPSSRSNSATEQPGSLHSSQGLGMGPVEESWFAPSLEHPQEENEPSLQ
Kind of assay: ADP-Glo kinase assay: catalytic activity of RIPK1 (autophosphorylation, conversion of ATP to ADP). It counts as biochemical. In short, it runs like this: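 The readout was ADP-Glo luminescence after a 240 min rt autophosphorylation reaction with 50 μM ATP, following 30 min preincubation of 3.6 μg/ml hRIPK1 (aa 1-375) fusion with compound at 33300-1.69 nM final in 1% DMSO. Values came from Levenberg-Marquardt nonlinear fits.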
In general terms: ADP-Glo turns the ADP formed in a reaction into a luminescent signal.

In general, IC50 refers to the point on the concentration scale where inhibition reaches its midpoint. Higher therefore signals a need for much substance. With `Cc1cn2nc(C[C@H]3CC[C@H](C(=O)N4OCC[C@H]4c4cc(F)cc(C#N)c4)CC3)c(C)cc2n1` [compound 292, trans-3-[(3S)-2-[4-[(2,7-dimethylimidazo[1,2-b]pyridazin-6-yl)methyl]cyclohexanecarbonyl]isoxazolidin-3-yl]-5-fluoro-benzonitrile], the IC50 in the assay with U937 cells is 0.004 µM; in assay [1] it was 0.014 µM.
For `N#Cc1cncc([C@@H]2CCON2C(=O)[C@H]2CC[C@H](Cn3cnc4cc(F)ccc43)CC2)c1` [compound 107, trans-5-((S)-2-(4-((5-fluoro-1H-benzo[d]imidazol-1-yl)methyl)cyclohexane-1-carbonyl)isoxazolidin-3-yl)nicotinonitrile] the same measures were 0.108 µM and 0.039 µM.
For `N#Cc1cc(F)cc([C@@H]2CCON2C(=O)[C@H]2CC[C@H](Cn3ncc4c(F)cc(C#N)cc43)CC2)c1` [compound 32, trans-1-((4-((S)-3-(3-cyano-5-fluorophenyl)isoxazolidine-2-carbonyl)cyclohexyl)methyl)-4-fluoro-1H-indazole-6-carbonitrile] the same measures were 0.003 µM and 0.019 µM.
For `N#Cc1cncc([C@@H]2CCON2C(=O)[C@H]2CC[C@H](Cn3cnc4cc(F)c(C#N)cc43)CC2)c1` [compound 64, trans-1-((4-((S)-3-(5-cyanopyridin-3-yl)isoxazolidine-2-carbonyl)cyclohexyl)methyl)-5-fluoro-1H-benzo[d]imidazole-6-carbonitrile] the same measures were 0.047 µM and 0.02 µM.
On to `Cn1cc(C[C@H]2CC[C@H](C(=O)N3OCC[C@H]3c3cc(F)cc(F)c3)CC2)cn1` [compound 236, trans-[(3S)-3-(3,5-difluorophenyl)isoxazolidin-2-yl]-[4-[(1-methylpyrazol-4-yl)methyl]cyclohexyl]methanone], for which the IC50 came to 0.004 µM with U937 cells and 0.02 µM in assay [1].
Turning to `Cn1ncc2ncc(C[C@H]3CC[C@H](C(=O)N4OCC[C@H]4c4cc(F)cc(F)c4)CC3)cc21` [compound 297, trans-[(3S)-3-(3,5-difluorophenyl)isoxazolidin-2-yl]-[4-[(1-methylpyrazolo[4,3-b]pyridin-6-yl)methyl]cyclohexyl]methanone], the IC50 was 0.007 µM in the assay on U937 cells and 0.014 µM in assay [1].
Regarding `O=C([C@H]1CC[C@H](Cn2cc3cc(F)ccc3n2)CC1)N1OCC[C@H]1c1cc(F)cc(F)c1` [compound 57, trans-((S)-3-(3,5-difluorophenyl)isoxazolidin-2-yl)(4-((5-fluoro-2H-indazol-2-yl)methyl)cyclohexyl)methanone], the IC50 was found to be 0.041 µM in the assay with U937 cells and 0.027 µM in assay [1].
The corresponding values for `N#Cc1cc(F)cc([C@@H]2CCON2C(=O)[C@H]2CC[C@H](Cn3ncc4cc(C(N)=O)ccc43)CC2)c1` [compound 72, trans-1-((4-((S)-3-(3-cyano-5-fluorophenyl)isoxazolidine-2-carbonyl)cyclohexyl)methyl)-1H-indazole-5-carboxamide] are 0.01 µM and 0.03 µM.
For `O=C([C@H]1CC[C@H](Cc2cc(F)c3ncnn3c2)CC1)N1OCC[C@H]1c1cnccn1` [compound 205, trans-[4-[(8-fluoro-[1,2,4]triazolo[1,5-a]pyridin-6-yl)methyl]cyclohexyl]-[(3S)-3-pyrazin-2-ylisoxazolidin-2-yl]methanone] the same measures were 0.112 µM and 0.031 µM.
For `Cc1nc2c(Cl)cc(C[C@H]3CC[C@H](C(=O)N4OCC[C@H]4c4cnc(C)c(F)c4)CC3)cn2n1` [compound 381, [4-[(8-chloro-2-methyl-[1,2,4]triazolo[1,5-a]pyridin-6-yl)methyl]cyclohexyl]-[(3S)-3-(5-fluoro-6-methylpyridin-3-yl)-1,2-oxazolidin-2-yl]methanone] the same measures were 0.008 µM and 0.031 µM.
